Measured values reported in ChEMBL document CHEMBL1255428, “Characterization of UDP-glucose dehydrogenase and UDP-glucose pyrophosphorylase mutants of Proteus mirabilis: defectiveness in polymyxin B resistance, swarming, and virulence” (2010).
Calls of active or inactive are those of the source. No cut-off for these calls is given here.

How the values were obtained:
Proteus mirabilis [1] = test: Antimicrobial activity against Proteus mirabilis dU2 knockout mutant transformed with pACYC184-ugd after 16 to 18 hrs by broth micro dilution assay; format: functional
Proteus mirabilis [2] = test: Antimicrobial activity against Proteus mirabilis dU2 knockout mutant after 16 to 18 hrs by broth micro dilution assay; format: functional
Proteus mirabilis [3] = test: Antimicrobial activity against Proteus mirabilis dG1 knockout after 16 to 18 hrs by broth micro dilution assay; format: functional
Proteus mirabilis [4] = test: Antimicrobial activity against Proteus mirabilis dG1 knockout mutant transformed with pACYC184-galU after 16 to 18 hrs by broth micro dilution assay; format: functional
Proteus mirabilis [5] = test: Antimicrobial activity against wild type Proteus mirabilis N2 after 16 to 18 hrs by broth micro dilution assay; format: functional
Proteus mirabilis [6] = test: Induction of Ugd expression in wild type Proteus mirabilis N2 at 1 ug/ml by real-time RT-PCR analysis; format: functional, organism-based
Proteus mirabilis [7] = test: Induction of Ugd expression in wild type Proteus mirabilis dA10c RppA-complemented strain at 1 ug/ml by real-time RT-PCR analysis; format: functional, organism-based
Proteus mirabilis [8] = test: Induction of Ugd expression in Proteus mirabilis dA10 rppA knockout mutant at 1 ug/ml by real-time RT-PCR analysis; format: functional, organism-based

Row | Compound | MIC (Proteus mirabilis [1]) [µg/mL] | MIC (Proteus mirabilis [2]) [µg/mL] | MIC (Proteus mirabilis [3]) [µg/mL] | MIC (Proteus mirabilis [4]) [µg/mL] | MIC (Proteus mirabilis [5]) [µg/mL] | Activity (Proteus mirabilis [6]) | Activity (Proteus mirabilis [7]) | Activity (Proteus mirabilis [8])
1 | CCCCCCCCCCCCOS(=O)(=O)[O-].[Na+] [SODIUM LAURYL SULFATE] | 2000 | 500 | 500 | 2000 | 2000 | – | – | –
2 | POLYMYXIN B | – | 2 | 4 | – | – | Active | inactive | Active
